From patent US20250079000A1, “METHODS AND MARKERS FOR DIAGNOSIS OF PARKINSON'S DISEASE” (Berg LLC, priority 2021, published 2025)

Tests used:
[1] = Short-term and long-term stability of NAP spiked in 2.5% BSA standard solution; type: physicochemical; details: for Bias %, long-term stability: LTS (88 days, −80 C.); for Bias %, short-term stability: STS (24 hrs, 5 C.)
Excerpt: (§1) Detection and Quantitation of NAP using LC-MS/MS. To quantify NAP in human K2-EDTA plasma, the quantification method using LC-MS/MS was developed. Due to low circulating levels of NAP, the sensitivity of quantification was improved using derivatization of isobutyl chloroformate in the sample preparation. The validation performance of the NAP assay is summarized in Table 8-15, including linearity, precision, matrix effect, system suitability, short-term stability, long-term stability, and reproducibility in the autosampler. […] The results of validation assessed by QCs met acceptance criteria (Table 9-15).

[2] = Stability of NAP spiked in human plasma (short-term, long-term, freeze-thaw, re-injection); type: in vitro ADME
Excerpt: as §1

[3] = NCAM short-term stability in plasma QC samples; type: in vitro ADME, human; details: HQC, MQC, LQC; 4° C. and 24° C.; 2, 4 and 24 hours; acceptance criteria −25% to 25%
Experimental: In the short-term stability test, three levels of QC samples were thawed from the −80° C. freezer and incubated at 4° C. or RT (18-24° C.) for 2, 4 or 24 h. The samples were then assayed and compared with samples freshly thawed from the −80° C. freezer and assayed along with the samples incubated at different conditions on the day of the assay.
Precision analyses were performed at high, medium and low concentrations (HQC, MQC, and LQC, respectively). For each concentration, twelve experiments were performed. […] Accuracy analyses were performed at two concentrations of NCAM: 10,000 pg/mL and 2,000 pg/mL. Five experiments were performed at each concentration. Recovery percentages for all experiments at both concentrations (FIG. 28C) were within the acceptance criteria of greater than or equal to 80% and less than or equal to 120%. Parallelism analyses were performed using six individual plasma samples at four dilutions. Recovery percentages (FIG. 28D) were within the acceptance criteria of greater than or equal to 75% and less than or equal to 125% for all samples tested at each of the four dilutions. Short-term stability analyses were performed at two temperatures: 4° C. and 24° C. For each temperature, high, medium and low concentration samples (HQC, MQC, and LQC, respectively) were maintained at 2 hours, 4 hours, and 24 hours.

[4] = HQC, expected value 54.2 ng/mL, acceptable range 27.8-80.7
[5] = LQC, expected value 3.2 ng/mL, acceptable range 2.33-4.03

Compound	Bias %, long-term stability ([1]; L1, 1.0 ng/mL)	Bias %, long-term stability ([1]; L8, 85.0 ng/mL)	Bias %, short-term stability ([1]; L1, 1.0 ng/mL)	Bias %, short-term stability ([1]; substock, 2000 ng/mL)	Mean concentration, freeze-thaw stability (4x) [2, 4]	Mean concentration, long-term stability (84 days, −80° C.) [2, 4]	Mean concentration, re-injection stability in autosampler (8 days) [2, 4]	Mean concentration, short-term stability (24 h, RT) [2, 4]	Mean concentration, freeze-thaw stability (4x) [2, 5]	Mean concentration, long-term stability (84 days, −80° C.) [2, 5]	Mean concentration, re-injection stability in autosampler (8 days) [2, 5]	Mean concentration, short-term stability (24 h, RT) [2, 5]	Short-term stability of plasma samples [3]
CC(=O)NCCCCN [NAP, N-acetyl putrescine]	10.6%	−8.1%	−3.6%	−6.7%	42.4 ng/mL	63.4 ng/mL	46.5 ng/mL	41.0 ng/mL	3.1 ng/mL	3.2 ng/mL	3.2 ng/mL	3.1 ng/mL	
P13591 (NCAM): Neural Cell Adhesion Molecule 1, cell adhesion protein, Uniprot P13591													within acceptance criteria
